tested on: bovine serum albumin (BSA); experiment: Fluorescamine assay of free primary amino groups of BSA incubated with D-ribose; format: biochemical; settings: free primary amino group on BSA after 5 days at 37° C.; agent at 16.8 times IC50; 64% without agent
Experimental: Fluorescamine assay (Yeboah F. et al., J. Agric. Food Chem. 48, 2766-2774 (2000)) was performed on incubated mixtures of BSA and D-ribose, with or without the identified anti-glycation agents. The mixtures contained BSA (0.075 mM protein concentration or 4.53 mM of Lys residue concentration) and D-ribose (50 mM). […] The fluorescamine assay determines the number of free lysine residues of BSA. In this experiment, the final volume of the incubation mixtures was 10 mL and the incubation time was 5 days at 37° C. Prior to the fluorescamine assay, the proteins were isolated by reverse phase HPLC. The protein content was determined using the Bio-Rad protein determination reagent (Bradford method). The fluorescamine assay was done in triplicate.

Row | Compound | Unreacted amino group
1 | O=c1cc(-c2ccccc2O)oc2cc(O)cc(O)c12 [5,7,2′-Trihydroxyflavone] | 53%
2 | O=c1cc(-c2cc(O)c(O)c(O)c2)oc2cc(O)cc(O)c12 [5,7,3′,4′,5′-Pentahydroxyflavone] | 54%
3 | O=c1cc(-c2ccc(O)c(O)c2)oc2c(O)c(O)ccc12 [7,8,3′,4′-Tetrahydroxyflavone] | 56%
4 | Oc1cc(O)c2c(c1)O[C@H](c1ccc(O)c(O)c1)[C@@H](O)C2 [(+)-Catechin] | 66%
5 | Oc1cc(O)c2c(c1)O[C@H](c1ccc(O)c(O)c1)[C@H](O)C2 [(−)-Epicatechin] | 57%
6 | O=C(O[C@@H]1Cc2c(O)cc(O)cc2O[C@@H]1c1cc(O)c(O)c(O)c1)c1cc(O)c(O)c(O)c1 [(−)-Epigallocatechin gallate] | 58%

tested on: lysozyme; experiment: ESI-MS of lysozyme glycoforms after incubation with D-ribose; settings: lysozyme + 2D-ribose − 2H2O (14,569 Da); 37° C., 5 days;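 also: lysozyme incubated with D-ribose, with or without anti-glycation agents, then separated by reversed-phase HPLC and analysed by electrospray mass spectrometry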

Row | Compound | Peak area as % of total area of all glycoforms, 14,569
7 | O=c1cc(-c2ccccc2O)oc2cc(O)cc(O)c12 [5,7,2′-Trihydroxyflavone] | 4.3%
8 | O=c1cc(-c2cc(O)c(O)c(O)c2)oc2cc(O)cc(O)c12 [5,7,3′,4′,5′-Pentahydroxyflavone] | 4.3%
9 | O=c1cc(-c2ccc(O)c(O)c2)oc2c(O)c(O)ccc12 [7,8,3′,4′-Tetrahydroxyflavone] | 1.6%
10 | Oc1cc(O)c2c(c1)O[C@H](c1ccc(O)c(O)c1)[C@@H](O)C2 [(+)-Catechin] | 2.8%
11 | Oc1cc(O)c2c(c1)O[C@H](c1ccc(O)c(O)c1)[C@H](O)C2 [(−)-Epicatechin] | 1.7%
12 | O=C(O[C@@H]1Cc2c(O)cc(O)cc2O[C@@H]1c1cc(O)c(O)c(O)c1)c1cc(O)c(O)c(O)c1 [(−)-Epigallocatechin gallate] | 2.9%

same assay, conditions: lysozyme + 2D-ribose − 3H2O (14,551 Da); 37° C., 5 days

Row | Compound | Peak area as % of total area of all glycoforms, 14,551
13 | O=c1cc(-c2ccccc2O)oc2cc(O)cc(O)c12 [5,7,2′-Trihydroxyflavone] | 4.8%
14 | O=c1cc(-c2cc(O)c(O)c(O)c2)oc2cc(O)cc(O)c12 [5,7,3′,4′,5′-Pentahydroxyflavone] | 4.3%
15 | O=c1cc(-c2ccc(O)c(O)c2)oc2c(O)c(O)ccc12 [7,8,3′,4′-Tetrahydroxyflavone] | 0.6%
16 | Oc1cc(O)c2c(c1)O[C@H](c1ccc(O)c(O)c1)[C@@H](O)C2 [(+)-Catechin] | 1.4%
17 | Oc1cc(O)c2c(c1)O[C@H](c1ccc(O)c(O)c1)[C@H](O)C2 [(−)-Epicatechin] | 0.0%
18 | O=C(O[C@@H]1Cc2c(O)cc(O)cc2O[C@@H]1c1cc(O)c(O)c(O)c1)c1cc(O)c(O)c(O)c1 [(−)-Epigallocatechin gallate] | 0.8%

same assay, conditions: lysozyme + 2D-ribose − 5H2O (14,533 Da); 37° C., 5 days

Row | Compound | Peak area as % of total area of all glycoforms, 14,533
19 | O=c1cc(-c2ccccc2O)oc2cc(O)cc(O)c12 [5,7,2′-Trihydroxyflavone] | 2.3%
20 | O=c1cc(-c2cc(O)c(O)c(O)c2)oc2cc(O)cc(O)c12 [5,7,3′,4′,5′-Pentahydroxyflavone] | 1.7%
21 | O=c1cc(-c2ccc(O)c(O)c2)oc2c(O)c(O)ccc12 [7,8,3′,4′-Tetrahydroxyflavone] | 0.0%
22 | Oc1cc(O)c2c(c1)O[C@H](c1ccc(O)c(O)c1)[C@@H](O)C2 [(+)-Catechin] | 1.2%
23 | Oc1cc(O)c2c(c1)O[C@H](c1ccc(O)c(O)c1)[C@H](O)C2 [(−)-Epicatechin] | 0.0%
24 | O=C(O[C@@H]1Cc2c(O)cc(O)cc2O[C@@H]1c1cc(O)c(O)c(O)c1)c1cc(O)c(O)c(O)c1 [(−)-Epigallocatechin gallate] | 1.7%

same assay, conditions: lysozyme + 2D-ribose − 6H2O (14,515 Da); 37° C., 5 days

Row | Compound | Peak area as % of total area of all glycoforms, 14,515
25 | O=c1cc(-c2ccccc2O)oc2cc(O)cc(O)c12 [5,7,2′-Trihydroxyflavone] | 1.7%
26 | O=c1cc(-c2cc(O)c(O)c(O)c2)oc2cc(O)cc(O)c12 [5,7,3′,4′,5′-Pentahydroxyflavone] | 0.7%
27 | O=c1cc(-c2ccc(O)c(O)c2)oc2c(O)c(O)ccc12 [7,8,3′,4′-Tetrahydroxyflavone] | 0.0%
28 | Oc1cc(O)c2c(c1)O[C@H](c1ccc(O)c(O)c1)[C@@H](O)C2 [(+)-Catechin] | 0.0%
29 | Oc1cc(O)c2c(c1)O[C@H](c1ccc(O)c(O)c1)[C@H](O)C2 [(−)-Epicatechin] | 0.0%
30 | O=C(O[C@@H]1Cc2c(O)cc(O)cc2O[C@@H]1c1cc(O)c(O)c(O)c1)c1cc(O)c(O)c(O)c1 [(−)-Epigallocatechin gallate] | 0.0%

same assay, conditions: lysozyme + D-ribose − 2H2O (14,419 Da); 37° C., 5 days

Row | Compound | Peak area as % of total area of all glycoforms, 14,419
31 | O=c1cc(-c2ccccc2O)oc2cc(O)cc(O)c12 [5,7,2′-Trihydroxyflavone] | 9.3%
32 | O=c1cc(-c2cc(O)c(O)c(O)c2)oc2cc(O)cc(O)c12 [5,7,3′,4′,5′-Pentahydroxyflavone] | 8.6%
33 | O=c1cc(-c2ccc(O)c(O)c2)oc2c(O)c(O)ccc12 [7,8,3′,4′-Tetrahydroxyflavone] | 3.0%
34 | Oc1cc(O)c2c(c1)O[C@H](c1ccc(O)c(O)c1)[C@@H](O)C2 [(+)-Catechin] | 4.0%
35 | Oc1cc(O)c2c(c1)O[C@H](c1ccc(O)c(O)c1)[C@H](O)C2 [(−)-Epicatechin] | 2.6%
36 | O=C(O[C@@H]1Cc2c(O)cc(O)cc2O[C@@H]1c1cc(O)c(O)c(O)c1)c1cc(O)c(O)c(O)c1 [(−)-Epigallocatechin gallate] | 2.6%

same assay, conditions: lysozyme + D-ribose − 3H2O (14,401 Da); 37° C., 5 days

Row | Compound | Peak area as % of total area of all glycoforms, 14,401
37 | O=c1cc(-c2ccccc2O)oc2cc(O)cc(O)c12 [5,7,2′-Trihydroxyflavone] | 1.6%
38 | O=c1cc(-c2cc(O)c(O)c(O)c2)oc2cc(O)cc(O)c12 [5,7,3′,4′,5′-Pentahydroxyflavone] | 0.2%
39 | O=c1cc(-c2ccc(O)c(O)c2)oc2c(O)c(O)ccc12 [7,8,3′,4′-Tetrahydroxyflavone] | 0.0%
40 | Oc1cc(O)c2c(c1)O[C@H](c1ccc(O)c(O)c1)[C@@H](O)C2 [(+)-Catechin] | 0.0%
41 | Oc1cc(O)c2c(c1)O[C@H](c1ccc(O)c(O)c1)[C@H](O)C2 [(−)-Epicatechin] | 0.0%
42 | O=C(O[C@@H]1Cc2c(O)cc(O)cc2O[C@@H]1c1cc(O)c(O)c(O)c1)c1cc(O)c(O)c(O)c1 [(−)-Epigallocatechin gallate] | 0.0%

same assay, conditions: lysozyme + D-ribose − H2O (14,437 Da); 37° C., 5 days

Row | Compound | Peak area as % of total area of all glycoforms, 14,437
43 | O=c1cc(-c2ccccc2O)oc2cc(O)cc(O)c12 [5,7,2′-Trihydroxyflavone] | 19.8%
44 | O=c1cc(-c2cc(O)c(O)c(O)c2)oc2cc(O)cc(O)c12 [5,7,3′,4′,5′-Pentahydroxyflavone] | 20.6%
45 | O=c1cc(-c2ccc(O)c(O)c2)oc2c(O)c(O)ccc12 [7,8,3′,4′-Tetrahydroxyflavone] | 15.9%
46 | Oc1cc(O)c2c(c1)O[C@H](c1ccc(O)c(O)c1)[C@@H](O)C2 [(+)-Catechin] | 19.7%
47 | Oc1cc(O)c2c(c1)O[C@H](c1ccc(O)c(O)c1)[C@H](O)C2 [(−)-Epicatechin] | 17.6%
48 | O=C(O[C@@H]1Cc2c(O)cc(O)cc2O[C@@H]1c1cc(O)c(O)c(O)c1)c1cc(O)c(O)c(O)c1 [(−)-Epigallocatechin gallate] | 20.9%

same assay, conditions: lysozyme + D-ribose − H2O with one carboxymethylated Lys residue (14,496 Da); 37° C., 5 days

Row | Compound | Peak area as % of total area of all glycoforms, 14,496
49 | O=c1cc(-c2ccccc2O)oc2cc(O)cc(O)c12 [5,7,2′-Trihydroxyflavone] | 0.0%
50 | O=c1cc(-c2cc(O)c(O)c(O)c2)oc2cc(O)cc(O)c12 [5,7,3′,4′,5′-Pentahydroxyflavone] | 0.0%
51 | O=c1cc(-c2ccc(O)c(O)c2)oc2c(O)c(O)ccc12 [7,8,3′,4′-Tetrahydroxyflavone] | 0.8%
52 | Oc1cc(O)c2c(c1)O[C@H](c1ccc(O)c(O)c1)[C@@H](O)C2 [(+)-Catechin] | 0.0%
53 | Oc1cc(O)c2c(c1)O[C@H](c1ccc(O)c(O)c1)[C@H](O)C2 [(−)-Epicatechin] | 0.0%
54 | O=C(O[C@@H]1Cc2c(O)cc(O)cc2O[C@@H]1c1cc(O)c(O)c(O)c1)c1cc(O)c(O)c(O)c1 [(−)-Epigallocatechin gallate] | 0.0%

same assay, conditions: lysozyme with one carboxymethylated Lys residue (14,364 Da); 37° C., 5 days

Row | Compound | Peak area as % of total area of all glycoforms, 14,364
55 | O=c1cc(-c2ccccc2O)oc2cc(O)cc(O)c12 [5,7,2′-Trihydroxyflavone] | 5.8%
56 | O=c1cc(-c2cc(O)c(O)c(O)c2)oc2cc(O)cc(O)c12 [5,7,3′,4′,5′-Pentahydroxyflavone] | 2.2%
57 | O=c1cc(-c2ccc(O)c(O)c2)oc2c(O)c(O)ccc12 [7,8,3′,4′-Tetrahydroxyflavone] | 2.0%
58 | Oc1cc(O)c2c(c1)O[C@H](c1ccc(O)c(O)c1)[C@@H](O)C2 [(+)-Catechin] | 2.0%
59 | Oc1cc(O)c2c(c1)O[C@H](c1ccc(O)c(O)c1)[C@H](O)C2 [(−)-Epicatechin] | 1.8%
60 | O=C(O[C@@H]1Cc2c(O)cc(O)cc2O[C@@H]1c1cc(O)c(O)c(O)c1)c1cc(O)c(O)c(O)c1 [(−)-Epigallocatechin gallate] | 2.0%

same assay, conditions: unmodified lysozyme (14,305 Da); 37° C., 5 days

Row | Compound | Peak area as % of total area of all glycoforms, 14,305
61 | O=c1cc(-c2ccccc2O)oc2cc(O)cc(O)c12 [5,7,2′-Trihydroxyflavone] | 46.7%
62 | O=c1cc(-c2cc(O)c(O)c(O)c2)oc2cc(O)cc(O)c12 [5,7,3′,4′,5′-Pentahydroxyflavone] | 55.0%
63 | O=c1cc(-c2ccc(O)c(O)c2)oc2c(O)c(O)ccc12 [7,8,3′,4′-Tetrahydroxyflavone] | 76.2%
64 | Oc1cc(O)c2c(c1)O[C@H](c1ccc(O)c(O)c1)[C@@H](O)C2 [(+)-Catechin] | 68.9%
65 | Oc1cc(O)c2c(c1)O[C@H](c1ccc(O)c(O)c1)[C@H](O)C2 [(−)-Epicatechin] | 76.3%
66 | O=C(O[C@@H]1Cc2c(O)cc(O)cc2O[C@@H]1c1cc(O)c(O)c(O)c1)c1cc(O)c(O)c(O)c1 [(−)-Epigallocatechin gallate] | 69.1%

tested on: bovine serum albumin (BSA); experiment: Maillard fluorescence-based assay of AGEs formation, IC50 determination (BSA + D-ribose); settings: Maillard fluorescence; listed if significantly lower than 100%

Row | Compound | maximum percentage of the inhibition
67 | O=C(O[C@@H]1Cc2c(O)cc(O)cc2O[C@@H]1c1cc(O)c(O)c(O)c1)c1cc(O)c(O)c(O)c1 [(−)-Epigallocatechin gallate] | 55%)

same assay, conditions: inhibition of Maillard fluorescence development; 0.075 mM BSA, 50 mM D-ribose, 37° C., 5 days

Row | Compound | IC50
68 | O=c1cc(-c2ccccc2O)oc2cc(O)cc(O)c12 [5,7,2′-Trihydroxyflavone] | 220 µM
69 | O=c1cc(-c2cc(O)c(O)c(O)c2)oc2cc(O)cc(O)c12 [5,7,3′,4′,5′-Pentahydroxyflavone] | 210 µM
70 | O=c1cc(-c2ccc(O)c(O)c2)oc2c(O)c(O)ccc12 [7,8,3′,4′-Tetrahydroxyflavone] | 150 µM
71 | Oc1cc(O)c2c(c1)O[C@H](c1ccc(O)c(O)c1)[C@@H](O)C2 [(+)-Catechin] | 19 µM
72 | Oc1cc(O)c2c(c1)O[C@H](c1ccc(O)c(O)c1)[C@H](O)C2 [(−)-Epicatechin] | 58 µM
73 | O=C(O[C@@H]1Cc2c(O)cc(O)cc2O[C@@H]1c1cc(O)c(O)c(O)c1)c1cc(O)c(O)c(O)c1 [(−)-Epigallocatechin gallate] | 48 µM

Source: patent US20080139664A1, “ANTI-GLYCATION AGENTS FOR PREVENTING AGE-, DIABETES-, AND SMOKING-RELATED COMPLICATIONS” (NATIONAL RESEARCH COUNCIL OF CANADA, priority 2001, published 2008)
